pIC50: −log10 of the molar value.
Assays:
Parameters in all cases: The final concentrations were 0.73 μM native pentameric CRP; from tissue
[1] = biological target: T1, CRP (Homo sapiens, UniProt P02741); test: Roche immunoturbidimetric assay: pure CRP; assay type: binding; details: pure CRP in TC buffer; read-out: IC50 (μM), SD; inhibition of Roche CRP immunoreactivity
T1 sequence (P02741 19-224): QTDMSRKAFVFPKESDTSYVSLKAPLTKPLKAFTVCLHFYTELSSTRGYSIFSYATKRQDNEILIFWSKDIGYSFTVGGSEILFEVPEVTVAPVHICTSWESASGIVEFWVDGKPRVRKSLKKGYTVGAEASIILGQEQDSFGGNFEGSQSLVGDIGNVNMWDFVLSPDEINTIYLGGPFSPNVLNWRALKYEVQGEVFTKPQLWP
Description: (i) Human CRP at ˜90 μg/ml (3.9 μM monomer or 0.78 μM pentamer) in TC buffer was prepared from a stock solution; a 75 μl aliquot was used in the assay.
(ii) Compounds were prepared from stock solutions at up to 10 mM in TC (labelled S1). They were serially diluted with TC buffer (100 μl ligand+200 μl TC) to provide up to 9 dilutions, S2-S10. A TC buffer control (S0) was included in each assay.
(iii) A 15 μl volume of each ligand solution was incubated with 75 μl of CRP for 1 h at 37° C. The final concentrations were CRP pentamer=0.73 μM, ligands S1-S10=625-0.03 μM, corresponding to ligand:CRP pentamer ratios of 853-0.04.
(iv) CRP concentrations were measured by the Roche microparticle-enhanced immunoturbidimetric assay (10) on the COBAS MIRA autoanalyser, and results expressed as a percentage of the CRP control.
(v) Data were plotted using Sigmaplot (V14) using the 4 parameter logistic curve y=min+(max−min)/(1+(x/EC50)^−Hill slope) to calculate EC50.
(vii) All compounds were assayed in comparison with a highly purified preparation of BPC8, that was prepared by Carbogen AMCIS AG, dissolved in sterile water and diluted into TC buffer as required.
The immunoturbidimetric CRP assay on the Roche COBAS MIRA Plus autoanalyser, utilises two different sized microparticles that are covalently coupled with two different monoclonal antibodies, which recognise different CRP epitopes. The assay was developed by Roche for clinical measurement of CRP serum and plasma with high sensitivity and a very wide dynamic range. Serendipitously, one of the two antibodies binds to an epitope present on the ligand binding B-face of CRP. Thus, when the binding pocket is occupied by ligand and, especially, when the B-face is occluded by the B-face to B-face interaction of two native CRP pentamers produced by cross linking via our unique bivalent ligands, the assay fails to detect the CRP. In contrast, the CRP is all detected and assayed normally by other assays that disrupt the crosslinking and/or use antibodies which recognise different, non-occluded, epitopes. Inhibition of CRP recognition in the Roche assay is thus a convenient tool to monitor the efficacy and potency of complex formation between our unique ligands and CRP.

[2] = biological target: T1, CRP; test: Size exclusion chromatography of CRP/ligand cross linking; assay type: binding; details: CRP/ligand complex re-chromatographed in absence of free ligand
Description: (i) Ligands were diluted to 0.5 mM in TC buffer from up to 10 mM stocks. Serial dilutions were prepared as required. […]
(iii) The complex was chromatographed on a Superdex200 column (10/300 GL; 24 ml bed volume), connected to the ÅKTA100 Explorer HPLC system, and equilibrated and eluted in TC buffer at 0.5 ml/min. Eluates were monitored at 280 nm and fractions (0.5 ml) collected as required.
Size exclusion chromatography on a Superdex 200 column equilibrated and eluted with TC buffer pH 8.0, and calibrated with standard globular marker proteins and with human CRP, the native CRP pentamer (Mr 115 kDa) eluted at 13.9 ml (range 13.7-14.0 ml, n=10).

[3] = biological target: T1, CRP; test: Immobilised phosphocholine plate assay (125I-CRP binding); details: read-out: IC50 for inhibition of 125I-CRP binding to immobilised phosphocholine
Description: (i) Phosphocholine was immobilised on Greiner NHS-activated microtitre plates by incubation with 4-aminophenyl-1-phosphocholine. Remaining active sites were blocked by incubation with 4% w/v BSA in TC buffer (TCB).
(ii) Human CRP at 1 μg/ml in TC buffer was spiked with ^125I-labelled CRP to provide 10^6 cpm/ml.
(iii) Compounds were prepared from up to 10 mM stock solutions by dilution in TC buffer to 0.5 mM (labelled S1). Serial dilutions were prepared by diluting 100 μl ligand solution with 200 μl TC buffer (S2-S10). A ligand-free control was also used (SO, TC only).
(iv) A 100 μl volume of CRP solution was incubated with 10 μl of each compound (S1-S10, SO) for 1 h at room temperature without stirring, to provide final ligand concentrations across the range 45.5 μM-6.9 nM with a ligand:CRP monomer molar ratio of 1151-0.06. In some cases, single fixed ligand concentrations were also assayed in comparison with PC.
(v) A 100 μl volume of each CRP-ligand mixture was added to the plate wells and incubated for 2 h at room temperature. Solutions were then discarded and the plates washed with TCB buffer. Bound radioactivity was measured (1 min counts) using a gamma counter (Perkin Elmer Wizard 2470).
(vi) Data were plotted with Sigmaplot v14 software using the 4-parameter logistic curve y=min+(max−min)/(1+(x/EC50)^−Hill slope) to calculate IC50.

IC50 [1] [µM]	SMILES	Stable to rechromatography [2]	pIC50 [3]
9.92	O=C(CCCCCCC(=O)NC(C(=O)O)[C@H]1CN2CCC1CC2)NC(C(=O)O)[C@H]1CN2CCC1CC2 (stereo partly drawn) [Compound P1d-6, 2-[(3R)-1-azabicyclo[2.2.2]octan-3-yl]-2-[7-({[(3R)-1-azabicyclo[2.2.2]octan-3-yl](carboxy)methyl}carbamoyl)heptanamido]acetic acid]		
0.97	O=C(NC(C(=O)O)[C@H]1CN2CCC1CC2)C(=O)NC(C(=O)O)[C@H]1CN2CCC1CC2 (stereo partly drawn) [Compound P1d-0, 2-[(3R)-1-azabicyclo[2.2.2]octan-3-yl]-2-[({[(3R)-1-azabicyclo[2.2.2]octan-3-yl](carboxy)methyl}carbamoyl)formamido]acetic acid]		
0.59	CC(C)(CCCCC(C)(C)COP(=O)(O)O[C@@H]1CN2CCC1CC2)COP(=O)(O)O[C@@H]1CN2CCC1CC2 [Pk-033, [(3S)-1-azabicyclo[2.2.2]octan-3-yloxy]({[8-({[(3S)-1-azabicyclo[2.2.2]octan-3-yloxy](hydroxy)phosphoryl}oxy)-2,2,7,7-tetramethyloctyl]oxy})phosphinic acid]		
	O=P(O)(OCCCCCCCOP(=O)(O)OC1CN2CCC1CC2)OC1CN2CCC1CC2 [Pk-026, Heptane-1,7-diyl di(S)-quinuclidin-3-yl) bis(hydrogen phosphate]		6.74
	O=P(O)(OCCCCCCCCCCOP(=O)(O)O[C@@H]1CN2CCC1CC2)O[C@@H]1CN2CCC1CC2 [Pk-027, Decane-1,10-diyl di(S)-quinuclidin-3-yl) bis(hydrogen phosphate]		6.74
> 400	O=C(CC(=O)NC(C(=O)O)[C@H]1CN2CCC1CC2)NC(C(=O)O)[C@H]1CN2CCC1CC2 (stereo partly drawn) [Compound P1d-1, 2-[(3R)-1-azabicyclo[2.2.2]octan-3-yl]-2-(2-{[[(3R)-1-azabicyclo[2.2.2]octan-3-yl](carboxy)methyl]carbamoyl}acetamido)acetic acid]		
> 400	O=C(CCCC(=O)NC(C(=O)O)[C@H]1CN2CCC1CC2)NC(C(=O)O)[C@H]1CN2CCC1CC2 (stereo partly drawn) [Compound P1d-3, 2-[(3R)-1-azabicyclo[2.2.2]octan-3-yl]-2-(4-{[[(3R)-1-azabicyclo[2.2.2]octan-3-yl](carboxy)methyl]carbamoyl}butanamido)acetic acid]		
1.08	O=P(O)(OCCCCCCOP(=O)(O)O[C@@H]1CN2CCC1CC2)O[C@@H]1CN2CCC1CC2 [Pk-025, Hexane-1,6-diyl di(S)-quinuclidin-3-yl) bis(hydrogen phosphate]		6.55
127	CN(C)CCOP(=O)(O)OCCCCCCCCOP(=O)(O)OCCN(C)C [Dm-BPC8, bis(2-(dimethylamino)ethyl) octane-1,8-diyl bis(hydrogen phosphate), reference compound]		
> 400	O=C(CCCCCCCC(=O)NC(C(=O)O)[C@H]1CN2CCC1CC2)NC(C(=O)O)[C@H]1CN2CCC1CC2 (stereo partly drawn) [Compound P1d-7, 2-[(3R)-1-azabicyclo[2.2.2]octan-3-yl]-2-(8-{[[(3R)-1-azabicyclo[2.2.2]octan-3-yl](carboxy)methyl]carbamoyl}octanamido)acetic acid]		
> 400	O=C(CCCCCC(=O)NC(C(=O)O)[C@H]1CN2CCC1CC2)NC(C(=O)O)[C@H]1CN2CCC1CC2 (stereo partly drawn) [Compound P1d-5, 2-[(3R)-1-azabicyclo[2.2.2]octan-3-yl]-2-(6-{[[(3R)-1-azabicyclo[2.2.2]octan-3-yl](carboxy)methyl]carbamoyl}hexanamido)acetic acid]		
26.2	O=C(NC(C(=O)O)[C@H]1CN2CCC1CC2)NC(C(=O)O)[C@H]1CN2CCC1CC2 (stereo partly drawn) [Compound P2B-G, 2-[[-carboxy-[(3R)-quinuclidin-3-yl]methyl]carbamoylamino]-2-[(3R)-quinuclidin-3-yl]acetic acid]		
	O=P(O)(OCCCCCCCCCOP(=O)(O)O[C@@H]1CN2CCC1CC2)O[C@@H]1CN2CCC1CC2 [Pk-028, Nonane-1,9-diyl di(S)-quinuclidin-3-yl) bis(hydrogen phosphate]		6.80
0.72	CC(C)(C/C=C/CC(C)(C)COP(=O)(O)O[C@@H]1CN2CCC1CC2)COP(=O)(O)O[C@@H]1CN2CCC1CC2 [Pk-032, di((S)-1-azabicyclo[2.2.2]octan-3-yl) (E)-2,2,7,7-tetramethyloct-4-ene-1,8-diyl bis(hydrogen phosphate)]		

SMILES	IC50 [1] [µM]	Stable to rechromatography [2]	pIC50 [3]
O=C(Cc1ccc(CC(=O)NC(C(=O)O)[C@H]2CN3CCC2CC3)cc1)NC(C(=O)O)[C@H]1CN2CCC1CC2 (stereo partly drawn) [Compound P2B-C, 2-[[2-[4-[2-[[carboxy-[(3R)-quinuclidin-3-yl]methyl]amino]-2-oxo-ethyl]phenyl]acetyl]amino]-2-[(3R)-quinuclidin-3-yl]acetic acid]	2.69		
O=C(CC(c1ccccc1)C(CC(=O)NC(C(=O)O)[C@H]1CN2CCC1CC2)c1ccccc1)NC(C(=O)O)[C@H]1CN2CCC1CC2 (single isomer, unassigned) [P2B-D peak1]	0.66	Yes	
O=C(CCC(=O)NC(C(=O)O)[C@H]1CN2CCC1CC2)NC(C(=O)O)[C@H]1CN2CCC1CC2 (stereo partly drawn) [Compound P1d-2, 2-[(3R)-1-azabicyclo[2.2.2]octan-3-yl]-2-[3-({[(3R)-1-azabicyclo[2.2.2]octan-3-yl](carboxy)methyl}carbamoyl)propanamido]acetic acid]	< 2	Yes	
C[N+]12CCC(CC1)[C@@H](C(NC(=O)CCCCC(=O)NC(C(=O)O)[C@H]1C[N+]3(C)CCC1CC3)C(=O)O)C2 (stereo partly drawn) [Compound P1d-4A, (3R)-3-{carboxy[5-({carboxy[(3R)-1-methyl-1-azabicyclo[2.2.2]octan-1-ium-3-yl]methyl}carbamoyl)pentanamido]methyl}-1-methyl-1-azabicyclo[2.2.2]octan-1-ium]	1.43		
O=C(CCCCC(=O)NC(C(=O)O)C1CN2CCC1CC2)NC(C(=O)O)C1CN2CCC1CC2 [Compound P1d-4, 2-[(3R)-1-azabicyclo[2.2.2]octan-3-yl]-2-(8-{[[(3R)-1-azabicyclo[2.2.2]octan-3-yl](carboxy)methyl]carbamoyl}pentamido)acetic acid]	< 2	Partial	

Reference: patent publication US20230118142A1, “AGENTS FOR USE IN THE TREATMENT OF TISSUE DAMAGE” (UCL BUSINESS LTD, priority 2020, published 2023)
